Source: PubChem BioAssay AID222 (DTP/NCI, 2004)
Where “and” joins values, the source holds several entries; their conditions need not be identical. Identical values can stand only once. Inconclusive results and toxic doses are left out. The calls were made as follows: active = survival T/C of 150% or more; inactive = T/C below 125% in these data.

Test system: C57BL/6 mice, intracerebral ependymoblastoma, median survival T/C
Assay: NCI In Vivo Anticancer Drug Screen. Data for tumor model Ependymoblastoma (intracerebral) in C57BL/6 mice
Conditions: endpoint: median survival time, higher = longer survival
Experimental: The antitumor activity of compounds was measured in mice bearing transplantable tumors. Survival or tumor size were measured and the results are expressed as the measurement made in the treated group (T) divided by the measurement made in the vehicle treated control group (C). The tumor model used in this assay is Ependymoblastoma (intracerebral) in C57BL/6 mice

[1] = dose: 8.0 mg/kg/injection, schedule: Q01DX001 (ip), vehicle: Klucel (hydroxypropylcellulose) (HPC)
[2] = dose: 16.0 mg/kg/injection, schedule: Q01DX001 (ip), vehicle: Klucel (hydroxypropylcellulose) (HPC)
[3] = dose: 16.0 mg/kg/injection, schedule: Q01DX001 (oral), vehicle: Klucel (hydroxypropylcellulose) (HPC)
[4] = dose: 32.0 mg/kg/injection, schedule: Q01DX001 (ip), vehicle: Klucel (hydroxypropylcellulose) (HPC)
[5] = dose: 32.0 mg/kg/injection, schedule: Q01DX001 (oral), vehicle: Klucel (hydroxypropylcellulose) (HPC)
[6] = dose: 64.0 mg/kg/injection, schedule: Q01DX001 (ip), vehicle: Klucel (hydroxypropylcellulose) (HPC)
[7] = dose: 64.0 mg/kg/injection, schedule: Q01DX001 (oral), vehicle: Klucel (hydroxypropylcellulose) (HPC)
[8] = dose: 128.0 mg/kg/injection, schedule: Q01DX001 (oral), vehicle: Klucel (hydroxypropylcellulose) (HPC)
[9] = dose: 256.0 mg/kg/injection, schedule: Q01DX001 (oral), vehicle: Klucel (hydroxypropylcellulose) (HPC)
[10] = dose: 1.0 mg/kg/injection, schedule: Q01DX005 (ip), vehicle: Klucel (hydroxypropylcellulose) (HPC)

Measured: T/C

COc1cc([C@@H]2c3cc4c(cc3[C@@H](OC3OC5CO[C@@H](c6cccs6)OC5C(O)C3O)[C@H]3COC(=O)[C@H]23)OCO4)cc(OC)c1O (some centres undefined)
inactive: dose: 0.06 mg/kg/injection, schedule: Q01DX005 (ip), vehicle: saline 101 % of control | dose: 0.12 mg/kg/injection, schedule: Q01DX005 (ip), vehicle: saline 95 % of control | dose: 0.25 mg/kg/injection, schedule: Q01DX005 (ip), vehicle: saline 97 % of control | dose: 0.5 mg/kg/injection, schedule: Q01DX005 (ip), vehicle: saline 99 % of control | dose: 1.0 mg/kg/injection, schedule: Q01DX005 (ip), vehicle: saline 104 % of control | dose: 1.0 mg/kg/injection, schedule: Q01DX005 (oral), vehicle: saline 101 % of control | dose: 2.0 mg/kg/injection, schedule: Q01DX005 (ip), vehicle: saline 114 % of control | dose: 4.0 mg/kg/injection, schedule: Q01DX005 (oral), vehicle: saline 104 % of control | dose: 8.0 mg/kg/injection, schedule: Q01DX005 (oral), vehicle: saline 100 % of control | dose: 16.0 mg/kg/injection, schedule: Q01DX005 (oral), vehicle: saline 95 % of control

CCOC(=O)C(C)(C)Oc1ccc(Cl)cc1
inactive: dose: 100.0 mg/kg/injection, schedule: Q01DX005 (ip), vehicle: saline with Tween-80 96 % of control | dose: 200.0 mg/kg/injection, schedule: Q01DX005 (ip), vehicle: saline with Tween-80 93 % of control

O=NN(CCCl)C(=O)NC1CCCCC1
active: dose: 8.0 mg/kg/injection, schedule: Q01DX005 (oral), vehicle: Klucel (hydroxypropylcellulose) (HPC) 155 % of control | dose: 16.0 mg/kg/injection, schedule: Q01DX005 (oral), vehicle: Klucel (hydroxypropylcellulose) (HPC) 311 % of control | dose: 32.0 mg/kg/injection, schedule: Q01DX005 (oral), vehicle: Klucel (hydroxypropylcellulose) (HPC) 310 % of control
inactive: [1] 106 % of control | [2] 105 % of control | [3] 111 % of control | [4] 98 % of control and 111 % of control | [5] 113 % of control | [6] 104 % of control and 106 % of control | [7] 113 % of control | dose: 128.0 mg/kg/injection, schedule: Q01DX001 (ip), vehicle: Klucel (hydroxypropylcellulose) (HPC) 95 % of control | [8] 100 % of control | dose: 256.0 mg/kg/injection, schedule: Q01DX001 (ip), vehicle: Klucel (hydroxypropylcellulose) (HPC) 108 % of control | [9] 104 % of control | dose: 512.0 mg/kg/injection, schedule: Q01DX001 (ip), vehicle: Klucel (hydroxypropylcellulose) (HPC) 95 % of control | dose: 512.0 mg/kg/injection, schedule: Q01DX001 (oral), vehicle: Klucel (hydroxypropylcellulose) (HPC) 97 % of control

COC(=O)[C@@]12OC[C@]34[C@H]([C@@H](O)[C@@H]1O)[C@@]1(C)CC(=O)C(O)=C(C)[C@@H]1C[C@H]3OC(=O)[C@H](OC(=O)/C=C(\C)C(C)C)[C@@H]24
inactive: dose: 0.03 mg/kg/injection, schedule: Q01DX005 (ip), vehicle: Klucel (hydroxypropylcellulose) (HPC) 92 % of control and 110 % of control | dose: 0.06 mg/kg/injection, schedule: Q01DX005 (ip), vehicle: Klucel (hydroxypropylcellulose) (HPC) 109 % of control and 116 % of control | dose: 0.12 mg/kg/injection, schedule: Q01DX005 (ip), vehicle: Klucel (hydroxypropylcellulose) (HPC) 101 % of control and 107 % of control | dose: 0.25 mg/kg/injection, schedule: Q01DX005 (ip), vehicle: Klucel (hydroxypropylcellulose) (HPC) 104 % of control and 109 % of control | dose: 0.5 mg/kg/injection, schedule: Q01DX005 (ip), vehicle: Klucel (hydroxypropylcellulose) (HPC) 93 % of control and 117 % of control | [10] 95 % of control | dose: 31.2 micrograms/kg/injection, schedule: Q01DX005 (ip), vehicle: saline + alcohol 86 % of control | dose: 62.5 micrograms/kg/injection, schedule: Q01DX005 (ip), vehicle: saline + alcohol 99 % of control | dose: 125.0 micrograms/kg/injection, schedule: Q01DX005 (ip), vehicle: saline + alcohol 94 % of control | dose: 250.0 micrograms/kg/injection, schedule: Q01DX005 (ip), vehicle: saline + alcohol 108 % of control | dose: 500.0 micrograms/kg/injection, schedule: Q01DX005 (ip), vehicle: saline + alcohol 87 % of control | dose: 1000.0 micrograms/kg/injection, schedule: Q01DX005 (ip), vehicle: saline + alcohol 99 % of control

COc1cc(NS(C)(=O)=O)ccc1Nc1c2ccccc2nc2ccccc12
inactive: [10] 93 % of control and 108 % of control | dose: 1.0 mg/kg/injection, schedule: Q01DX005 (ip), vehicle: saline + alcohol 93 % of control and 108 % of control and 116 % of control | dose: 1.0 mg/kg/injection, schedule: Q01DX005 (ip), vehicle: water 89 % of control and 110 % of control | dose: 2.0 mg/kg/injection, schedule: Q01DX005 (ip), vehicle: Klucel (hydroxypropylcellulose) (HPC) 98 % of control and 104 % of control | dose: 2.0 mg/kg/injection, schedule: Q01DX005 (ip), vehicle: saline + alcohol 94 % of control and 109 % of control and 112 % of control | dose: 2.0 mg/kg/injection, schedule: Q01DX005 (ip), vehicle: water 105 % of control and 108 % of control | dose: 4.0 mg/kg/injection, schedule: Q01DX005 (ip), vehicle: Klucel (hydroxypropylcellulose) (HPC) 112 % of control | dose: 4.0 mg/kg/injection, schedule: Q01DX005 (ip), vehicle: saline + alcohol 90 % of control and 98 % of control | dose: 4.0 mg/kg/injection, schedule: Q01DX005 (ip), vehicle: water 103 % of control and 107 % of control | dose: 4.0 mg/kg/injection, schedule: Q#A X002 (ip), vehicle: Klucel (hydroxypropylcellulose) (HPC) 89 % of control and 105 % of control | [1] 90 % of control and 96 % of control and 106 % of control | dose: 8.0 mg/kg/injection, schedule: Q01DX005 (ip), vehicle: Klucel (hydroxypropylcellulose) (HPC) 116 % of control | dose: 8.0 mg/kg/injection, schedule: Q#A X002 (ip), vehicle: Klucel (hydroxypropylcellulose) (HPC) 91 % of control and 92 % of control | [2] 104 % of control (2×) and 107 % of control | [3] 99 % of control and 113 % of control | dose: 16.0 mg/kg/injection, schedule: Q#A X002 (ip), vehicle: Klucel (hydroxypropylcellulose) (HPC) 90 % of control | [4] 89 % of control and 101 % of control and 107 % of control | [5] 108 % of control | dose: 32.0 mg/kg/injection, schedule: Q#A X002 (ip), vehicle: Klucel (hydroxypropylcellulose) (HPC) 89 % of control and 93 % of control | [6] 91 % of control | [7] 94 % of control and 97 % of control | dose: 64.0 mg/kg/injection, schedule: Q#A X002 (ip), vehicle: Klucel (hydroxypropylcellulose) (HPC) 89 % of control and 91 % of control | [8] 90 % of control and 102 % of control | [9] 91 % of control

Cc1c[nH]c(=O)[nH]c1=O
inactive: dose: 32.0 mg/kg/injection, schedule: Q01DX005 (ip), vehicle: Klucel (hydroxypropylcellulose) (HPC) 99 % of control | dose: 64.0 mg/kg/injection, schedule: Q01DX005 (ip), vehicle: saline with Tween-80 97 % of control | dose: 128.0 mg/kg/injection, schedule: Q01DX005 (ip), vehicle: Klucel (hydroxypropylcellulose) (HPC) 97 % of control | dose: 128.0 mg/kg/injection, schedule: Q01DX005 (ip), vehicle: saline with Tween-80 102 % of control | dose: 256.0 mg/kg/injection, schedule: Q01DX005 (ip), vehicle: Klucel (hydroxypropylcellulose) (HPC) 95 % of control | dose: 256.0 mg/kg/injection, schedule: Q01DX005 (ip), vehicle: saline with Tween-80 97 % of control | dose: 512.0 mg/kg/injection, schedule: Q01DX005 (ip), vehicle: Klucel (hydroxypropylcellulose) (HPC) 106 % of control | dose: 512.0 mg/kg/injection, schedule: Q01DX005 (ip), vehicle: saline with Tween-80 88 % of control | dose: 1024.0 mg/kg/injection, schedule: Q01DX005 (ip), vehicle: saline with Tween-80 107 % of control

CC[n+]1c(-c2ccccc2)c2cc(N)ccc2c2ccc(N)cc21
inactive: dose: 12.0 mg/kg/injection, schedule: Q01DX005 (ip), vehicle: saline 99 % of control
